Assay results taken from patent US12479840B2, “HMG-CoA reductase degradation inducing compound” (Uppthera, priority 2020, dated 2025).

What follows are compounds tested against T1, HMG-CoA reductase (Homo sapiens, UniProt P04035) (assay: HMG-CoA reductase (HMGCR) degradation in HepG2 cells by western blotting). Settings: treated for 18 hours, ratio of HMG-CoA reductase to GAPDH.
T1 construct: endogenous in cells; host or cells: HepG2 (Korea Cell Line Bank)
T1 sequence (P04035 1-888): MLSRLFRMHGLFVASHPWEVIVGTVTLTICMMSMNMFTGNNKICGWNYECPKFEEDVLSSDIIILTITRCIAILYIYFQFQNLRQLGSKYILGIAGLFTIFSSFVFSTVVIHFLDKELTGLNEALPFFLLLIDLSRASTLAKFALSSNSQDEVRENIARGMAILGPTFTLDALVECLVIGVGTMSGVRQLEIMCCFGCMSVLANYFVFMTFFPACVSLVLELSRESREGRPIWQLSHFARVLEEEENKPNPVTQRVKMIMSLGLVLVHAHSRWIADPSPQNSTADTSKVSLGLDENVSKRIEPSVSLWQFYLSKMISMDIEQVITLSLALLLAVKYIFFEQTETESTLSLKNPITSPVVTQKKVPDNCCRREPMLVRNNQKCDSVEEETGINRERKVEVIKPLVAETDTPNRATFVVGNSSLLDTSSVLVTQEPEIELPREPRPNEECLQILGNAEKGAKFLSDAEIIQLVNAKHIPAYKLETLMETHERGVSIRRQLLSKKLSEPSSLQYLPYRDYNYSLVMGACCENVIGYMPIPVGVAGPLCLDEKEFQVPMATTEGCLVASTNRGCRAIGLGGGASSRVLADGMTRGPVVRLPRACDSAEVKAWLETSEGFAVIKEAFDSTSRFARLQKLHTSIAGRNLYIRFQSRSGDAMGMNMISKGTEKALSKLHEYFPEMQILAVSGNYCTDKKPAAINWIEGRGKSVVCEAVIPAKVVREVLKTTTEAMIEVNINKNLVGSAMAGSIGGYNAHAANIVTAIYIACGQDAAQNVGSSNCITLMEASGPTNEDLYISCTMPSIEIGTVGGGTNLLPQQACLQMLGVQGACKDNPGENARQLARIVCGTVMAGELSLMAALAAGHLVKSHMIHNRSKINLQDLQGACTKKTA
Format: cell-based
Method: HepG2, a human liver cancer cell line, was purchased from the Korea Cell Line Bank (KCLB), Seoul, Korea. The passage in cell culture was maintained at P105 to P110.
The compounds of the present invention were completely dissolved in DMSO and used in the experiment. 2×10^5 cells were seeded for each well of a 12-well plate (SPL), and the cells were cultured in the culture medium in a total volume of 2 ml. Each of the compounds of the present invention and comparative compounds was diluted three folds from the highest concentration of 3 μM to the lowest concentration in 10 points and treated for 18 hours.
Each of the compounds the present invention and comparative compounds was diluted three folds from the highest concentration of 3 μM to the lowest concentration of […] in 10 points and was treated for 18 hours.
For SDS-PAGE and Western blotting, 1×RIPA lysis buffer (Rockland, Cat. No. MB-030-0050; Lot no. 39751), 100× Protease Inhibitor Cocktail (Quartett, Cat. No. PPI1015; Lot no. PCO50038424), Pierce™ BCA protein assay kit (ThermoScientific, Cat. No. 23225; Lot no. UC276876), albumin standard (ThermoScientific, Cat. No. 23209; Lot no. UB269561), 4-15% Mini-PROTEAN TGX stain-free gel (Bio-rad, Cat. No. 4568085; Lot no. L007041B), 10× Tris/Glycine/SDS buffer (Bio-rad, Cat. No. 1610732; Lot no. 10000044375B); 10×TBS (Bio-rad, Cat. No. 1706435; Lot no. 1000045140B), 10% Tween 20 (Cat. No. 1610781; Lot no. L004152B), Color protein standard broad range (NEB, Cat. No. P7719S; Lot no. 10040349), 4× Laemmli sample buffer (Bio-rad, Cat. No. 1610747; Lot no. L004133B), β-mercaptoethanol (Sigma-Aldrich, Cat. No. M3148; Lot no. 60-24-2), SuperBlock™ T20 (TBS) blocking buffer (ThermoScientific, Cat. No. 37536; Lot no. UC282578), 1M sodium azide solution (Sigma-Aldrich, Cat. No. 08591-1 mL-F; Lot no. BCBV4989), α-Rabbit pAb to Ms IgG (abcam, Cat. No. ab97046; Lot no. GR3252115-1), α-Goat pAb to Rb IgG (CST, Cat. No. 7074S; Lot no. 28), α-GAPDH (abcam, Cat. No. ab8245), α-HMGCR (GeneTex, Cat. No. GTX54088; Lot no. 821903509), ECL™ Prime western blotting reagents (GE Healthcare, Cat. No. RPN2232; Lot no. 17001655), Ponceau S solution (Sigma-Aldrich, Cat. No. P7170; Lot no. SLBV4112), Difco™ Skim milk (BD, Cat. No. 232100; Lot no. 8346795), and iBlot® 2 NC Regular stacks (Invitrogen, Cat. No. IB23001; Lot no. 2NR110619-02), were used.
For cell harvesting, the cells were first separated from the plate using trypsin and then washed with the medium and PBS. Specifically, the medium was suctioned off and washed with 1 mL of PBS, and PBS was suctioned off. The cells were treated with 0.5 mL TrypLE™ Express at 37° C. for 7 minutes to separate the cells, and then 0.5 mL of complete medium was added to collect 1 mL of cell culture solution. Then, 1 mL of the cell collection solution was centrifuged at 8,000 rpm for 120 seconds, and the supernatant was removed. After washing with 0.2 mL of PBS, the PBS was removed.
For cell lysis, a lysis buffer was added and cell debris was removed to obtain a cell lysate. Specifically, the cells were treated with 70 μL of 1×RIPA buffer containing a protease inhibitor and incubated for 30 minutes on ice. Then, the cells were centrifuged at 4° C. and 15,000 rpm for 10 minutes to obtain a cell lysate.
Then, a standard curve was obtained using the BCA assay, and the protein mass in the lysate was quantified by substituting the curve. The mixture was incubated at 37° C. for 30 minutes using 20 μL of standard or sample solution, and 200 μL of BCA or Bradford solution, and measured at 562 nm absorbance. Samples were prepared by adding 4× sample buffer so that the quantity of protein added to each well was 15 μg.
Sodium dodecyl sulfate polyacrylamide gel electrophoresis (SDS-PAGE) was performed by setting a running time of 100 minutes at 120 V on a 4-15% Mini-PROTEAN TGX stain-free gel (15 well). Transferring was performed on iBlot® 2 NC Mini stacks at P0 mode of the dry blotting system. […]

Compound | DC50 [nM]
Cc1ncsc1-c1ccc(CNC(=O)[C@@H]2C[C@@H](O)CN2C(=O)[C@@H](NC(=O)C2(F)CC2)C(C)(C)C)c(OCCOCCOCCNC(=O)O[C@H]2C[C@@H](C)C=C3C=C[C@H](C)[C@H](CC[C@@H]4C[C@@H](O[Si](C)(C)C(C)(C)C)CC(=O)O4)[C@H]32)c1 [Compound 28, (1S,3R,7S,8S,8aR)-8-(2-((2R,4R)-4-((tert-butyldimethylsilyl)oxy)-6-oxotetrahydro-2H-pyran-2-yl)ethyl)-3,7-dimethyl-1,2,3,7,8,8a-hexahydronaphthalen-1-yl (2-(2-(2-(2-(((2S,4R)-1-((S)-2-(1-fluorocyclopropane-1-carboxamido)-3,3-dimethylbutanoyl)-4-hydroxypyrrolidine-2-carboxamido)methyl)-5-(4-methylthiazol-5-yl)phenoxy)ethoxy)ethoxy)ethyl)carbamate] | < 50

Same assay, conditions: treated for 18 hours, ratio of HMG-CoA reductase to GAPDH, read-out: DC50

DC50 [nM] | Compound
< 50 | C[C@H]1C=C2C=C[C@H](C)[C@H](CC[C@@H]3C[C@@H](O)CC(=O)O3)[C@H]2[C@@H](OC(=O)NCCOCCOCCNc2ccc3c(c2)C(=O)N(C2CCC(=O)NC2=O)C3=O)C1 (stereo partly drawn) [Compound 68, (1S,3R,7S,8S,8aR)-8-(2-((2R,4R)-4-hydroxy-6-oxotetrahydro-2H-pyran-2-yl)ethyl)-3,7-dimethyl-1,2,3,7,8,8a-hexahydronaphthalen-1-yl (2-(2-(2-((2-(2,6-dioxopiperidin-3-yl)-1,3-dioxoisoindolin-5-yl)amino)ethoxy)ethoxy)ethyl)carbamate]
50 to 500 | C[C@H]1C=C2C=C[C@H](C)[C@H](CC[C@@H]3C[C@@H](O[Si](C)(C)C(C)(C)C)CC(=O)O3)[C@H]2[C@@H](OC(=O)NCCCCCCN2CCC(Nc3cccc4c3C(=O)N(C3CCC(=O)NC3=O)C4=O)CC2)C1 (stereo partly drawn) [Compound 125, (1S,3R,7S,8S,8aR)-8-(2-((2R,4R)-4-((tert-butyldimethylsilyl)oxy)-6-oxotetrahydro-2H-pyran-2-yl)ethyl)-3,7-dimethyl-1,2,3,7,8,8a-hexahydronaphthalen-1-yl (6-(4-((2-(2,6-dioxopiperidin-3-yl)-1,3-dioxoisoindolin-4-yl)amino)piperidin-1-yl)hexyl)carbamate]
< 50 | Cc1ncsc1-c1ccc(CNC(=O)[C@@H]2C[C@@H](O)CN2C(=O)[C@@H](NC(=O)C2(F)CC2)C(C)(C)C)c(OCCOCCNC(=O)O[C@H]2C[C@@H](C)C=C3C=C[C@H](C)[C@H](CC[C@@H]4C[C@@H](O)CC(=O)O4)[C@H]32)c1 [Compound 23, (1S,3R,7S,8S,8aR)-8-(2-((2R,4R)-4-hydroxy-6-oxotetrahydro-2H-pyran-2-yl)ethyl)-3,7-dimethyl-1,2,3,7,8,8a-hexahydronaphthalen-1-yl (2-(2-(2-(((2S,4R)-1-((S)-2-(1-fluorocyclopropane-1-carboxamido)-3,3-dimethylbutanoyl)-4-hydroxypyrrolidine-2-carboxamido)methyl)-5-(4-methylthiazol-5-yl)phenoxy)ethoxy)ethyl)carbamate]
< 50 | C[C@H]1C=C2C=C[C@H](C)[C@H](CC[C@@H]3C[C@@H](O)CC(=O)O3)[C@H]2[C@@H](OC(=O)C(C)(C)CCC(=O)NCCOCCOCCOCCOCCOCCNc2cccc3c2C(=O)N(C2CCC(=O)NC2=O)C3=O)C1 (stereo partly drawn) [Compound 5, (1S,3R,7S,8S,8aR)-8-(2-((2R,4R)-4-hydroxy-6-oxotetrahydro-2H-pyran-2-yl)ethyl)-3,7-dimethyl-1,2,3,7,8,8a-hexahydronaphthalen-1-yl 1-((2-(2,6-dioxopiperidin-3-yl)-1,3-dioxoisoindolin-4-yl)amino)-22,22-dimethyl-19-oxo-3,6,9,12,15-pentaoxa-18-azatricosan-23-oate]
< 50 | C[C@H]1C=C2C=C[C@H](C)[C@H](CC[C@@H]3C[C@@H](O[Si](C)(C)C(C)(C)C)CC(=O)O3)[C@H]2[C@@H](OC(=O)NCCOCCOCC#Cc2cccc3c2C(=O)N(C2CCC(=O)NC2=O)C3=O)C1 (stereo partly drawn) [Compound 114, (1S,3R,7S,8S,8aR)-8-(2-((2R,4R)-4-((tert-butyldimethylsilyl)oxy)-6-oxotetrahydro-2H-pyran-2-yl)ethyl)-3,7-dimethyl-1,2,3,7,8,8a-hexahydronaphthalen-1-yl (2-(2-((3-(2-(2,6-dioxopiperidin-3-yl)-1,3-dioxoisoindolin-4-yl)prop-2-yn-1-yl)oxy)ethoxy)ethyl)carbamate]

Compound | DC50 [nM]
CN[C@@H](C)C(=O)N[C@H](C(=O)N1CCC[C@H]1c1nc(C(=O)c2cccc(OCCOCCOCCNC(=O)O[C@H]3C[C@@H](C)C=C4C=C[C@H](C)[C@H](CC[C@@H]5C[C@@H](O[Si](C)(C)C(C)(C)C)CC(=O)O5)[C@H]43)c2)cs1)C1CCCCC1 [Compound 36, (1S,3R,7S,8S,8aR)-8-(2-((2R,4R)-4-((tert-butyldimethylsilyl)oxy)-6-oxotetrahydro-2H-pyran-2-yl)ethyl)-3,7-dimethyl-1,2,3,7,8,8a-hexahydronaphthalen-1-yl (2-(2-(2-(3-(2-((S)-1-((S)-2-cyclohexyl-2-((S)-2-(methylamino)propanamido)acetyl)pyrrolidin-2-yl)thiazole-4-carbonyl)phenoxy)ethoxy)ethoxy)ethyl)carbamate] | < 50
